Series [1] concerns MiaPaca-2 pancreatic cell line. Briefly: MTT cell survival, MiaPaca-2. It counts as cell-based. The note with it: Homo sapiens, MIA PaCa-2; MiaPaca-2, MTT. An excerpt: (§1) AKT inhibition leads to cellular apoptosis.
In series [2] the test system is Panc-1 pancreatic cell line. Kind of series: MTT cell survival, Panc-1. It counts as cell-based. The conditions noted are these: Homo sapiens; Panc-1, MTT.
In series [3] the test system is Panc-1 pancreatic cell line. Kind of series: Apoptosis, morphological assay, Panc-1. The series is classed as cell-based, human. The note with it: Panc-1, 20 μmol/L.
Excerpt: as §1

The next series concerns pancreatic cancer cells. Briefly: Cell viability assay (Table 3). The conditions noted are these: viability assay; cell line not given.
Series [4] relates to MiaPaca-2 pancreatic cell line. Kind of series: Apoptosis, morphological assay, MiaPaca-2. The series is classed as cell-based, human. The conditions noted are these: MiaPaca-2, 20 μmol/L.
Excerpt: as §1

The target of series [5] is T1, AKT PH domain (Homo sapiens, UniProt P31749). Briefly: SPR direct binding (Biacore 2000), KD. Set-up: made in house. The conditions noted are these: purified AKT PH domain. The protocol: (§2) Binding assays using SPR and an ELISA competitive binding assay were used to measure the binding affinity (KD) of the compounds to all three PH domains. SPR was carried out as described above. […] Purified GST-PH domains were incubated with increasing concentrations of the compounds under analysis for about 4 hours in 0.2 M carbonate buffer pH 9.4 and were added to the 96-well plate and incubated overnight at 4° C. Following incubation, the plate was washed 4 times with phosphate buffered 0.9% NaCl (PBS), blocked with 3% bovine serum albumin (BSA) in PBS and 0.01% Tween for 1 hour, washed again 4 times with PBS and mouse monoclonal anti-glutathione-S-transferase antibody in 3% BSA (1:2000) was added for 1 hr at room temperature with shaking. The plate was washed 4 times with PBS and an anti-mouse IgG horseradish peroxidase coupled antibody (dilution 1:2000 in 3% BSA) was added for 1 hr. After 4 washes with PBS, 2,2′-azinobis[3-ethylbenzothiazoline-6-sulfonic acid]-diammonium salt (ABST) was added and the reaction was allowed to develop for 30 min.
T1 sequence (P31749 5-108 limits assumed): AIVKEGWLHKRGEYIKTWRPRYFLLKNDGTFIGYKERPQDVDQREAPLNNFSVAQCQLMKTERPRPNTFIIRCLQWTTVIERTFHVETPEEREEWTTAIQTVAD

A short description of series [6]: pH solubility profile / pKa. The series is classed as physicochemical. The conditions noted are these: aqueous buffer solutions, from pH-solubility profile. The protocol:
These samples were then rotated at room temperature for 24 hours. After rotation, if there was no evidence of precipitated compound, additional compound 104 was added and the dissolution processes were repeated. […] HPLC Assay. […] The run time was 5 minutes and the injection volume was 2 μL.

The next series has as its system SKOV-3 ovarian cancer. Briefly: Antitumor activity, oral gavage, SKOV-3 xenograft. The series is classed as in vivo, mouse. The note with it: SKOV-3, 250 mg/kg BID × 10 D oral.
The target of series [7] is T2, AKT (phospho-Ser^473 AKT) in NIH3T3 cells (Mus musculus, UniProt P31750).
T2 construct: endogenous in cells; host or cells: NIH3T3
T2 sequence (P31750 whole entry): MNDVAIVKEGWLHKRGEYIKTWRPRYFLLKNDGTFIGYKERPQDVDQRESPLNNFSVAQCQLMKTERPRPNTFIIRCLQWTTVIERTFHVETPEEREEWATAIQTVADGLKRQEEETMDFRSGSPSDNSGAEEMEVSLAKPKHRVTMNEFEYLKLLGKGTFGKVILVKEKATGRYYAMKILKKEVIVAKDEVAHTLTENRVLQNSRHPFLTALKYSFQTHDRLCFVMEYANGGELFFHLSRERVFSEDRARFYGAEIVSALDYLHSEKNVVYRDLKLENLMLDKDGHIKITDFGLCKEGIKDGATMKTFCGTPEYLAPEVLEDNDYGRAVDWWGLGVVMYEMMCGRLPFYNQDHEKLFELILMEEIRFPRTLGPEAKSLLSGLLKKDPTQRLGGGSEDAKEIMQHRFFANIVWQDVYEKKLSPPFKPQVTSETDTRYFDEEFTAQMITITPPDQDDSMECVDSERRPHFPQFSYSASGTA
Kind of series: Inhibition of phospho-Ser473 AKT in NIH3T3 cells. It counts as cell-based. The protocol:
[…]. […] AKT activity was measured by Western blotting using anti-phosphoSer437 AKT antibody. Downstream targets of AKT were detected also by Western blotting using specific anti-phospho antibodies and anti-actin was used as a loading control.

The nature of the next series: Solubility (Table 11). It counts as physicochemical.
Series [8] is described as follows: Pharmacokinetics of compound 316 in scid mice. It counts as in vivo, mouse.
Series [9] addresses AKT (phospho-Ser-AKT) in HT-29 xenograft tumors (Homo sapiens, UniProt P31749). Briefly: Tumor phospho-Ser-AKT in HT-29 xenografts. It counts as in vivo, mouse. The note with it: 4 hours after a single 250 mg/kg dose.
The nature of series [10]: Metabolic stability, incubation with HT-29 cells. The series is classed as in vitro ADME. The conditions noted are these: human. An excerpt: Compound 6 was too insoluble to obtain data.
Series [11] is classed as in vivo.
Series [12] can be described thus: Cytotoxicity in HT-29 cells. It counts as cell-based, human. The note with it: human.
For series [13], the target named is T3, AKT (phospho-Ser^473 AKT) in HT-29 colon cancer cells (Homo sapiens, UniProt P31749).
T3 construct: endogenous in cells; host or cells: HT-29
T3 sequence (P31749 whole entry): as the sequence (P31750 whole entry) above, with N2S, S50A, A100T, R112K, T117E, T389K, N410G, D415H counted along it
Briefly: Inhibition of phospho-Ser473 AKT in HT-29 colon cancer cells (Table 11). The series is classed as cell-based. The conditions noted are these: human HT-29 colon cancer cells. The protocol: AKT activity was measured by Western blotting using anti-phosphoSer437 AKT antibody. Downstream targets of AKT were detected also by Western blotting using specific anti-phospho antibodies and anti-actin was used as a loading control.
AKT activity was measured by Western blotting using anti-phospho-[…] AKT antibody, PDK activity by anti-phospho-Ser241 PDK antibody as well as downstream target PKC using pan-phospho PKC antibodies. Anti-actin was used as a loading control.

The next series has as its target T4, IRS1 PH domain (Homo sapiens, UniProt P35568).
T4 sequence (P35568 12-115 limits assumed): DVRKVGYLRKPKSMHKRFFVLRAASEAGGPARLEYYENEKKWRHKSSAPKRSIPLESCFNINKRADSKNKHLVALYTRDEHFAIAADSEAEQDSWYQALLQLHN
Kind of series: SPR direct binding, KD, IRS1 PH domain. The conditions noted are these: Table 10, SPR; for Kd: read-out: 1RS1 PH mKD. The protocol:
as §2

The next series concerns HT-29 cells. Kind of series: Cytotoxicity in HT-29 cells. It counts as cell-based, human.
The subject of another series is HT-29 lung cancer cells. Kind of series: MTT cell survival in HT-29 cells (Table 2). The series is classed as cell-based. The note with it: Homo sapiens.
For another series, the target named is T5, PH domain of PDK1 (Homo sapiens, UniProt O15530).
T5 sequence (O15530 459-550 limits assumed): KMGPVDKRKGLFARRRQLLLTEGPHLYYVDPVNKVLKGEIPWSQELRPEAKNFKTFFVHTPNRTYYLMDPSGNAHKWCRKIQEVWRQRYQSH
Briefly: SPR direct binding, KD, PDK1 PH domain. The conditions noted are these: Table 10, SPR; read-out: PDK1 PH mKD. The protocol:
as §2

The target in series [14] is T6, AKT (phospho-Ser^473-AKT) in HT-29 lung cancer cells (Homo sapiens, UniProt P31749).
T6 construct: endogenous in cells; host or cells: HT-29
T6 sequence (P31749 whole entry): as the sequence (P31750 whole entry) above, with N2S, S50A, A100T, R112K, T117E, T389K, N410G, D415H counted along it
Kind of series: Western blot phospho-Ser473-AKT in HT-29 cells (Table 2). It counts as cell-based. The conditions noted are these: read-out: AKT inhibition (IC50).
Excerpt: as §1
On the technique in general: A western blot detects proteins with antibodies after separation by electrophoresis.

The target in series [15] is T1, AKT PH domain. The conditions noted are these: purified AKT PH domain, SPR.
The mark [16] stands for this setting: HT-29 cell culture conditions, read-out: half lives under cell culture conditions.
The mark [17] stands for this setting: incubating with HT-29 cells at maximum DMEM concentration at 37° C., read-out: Metabolic half life.

A word on the IC50: it is the concentration that inhibits the measured activity by half. For orientation: pKa means the negative logarithm of the acid dissociation constant. The T/C is the ratio of treated to control. Usually solubility stands for how much of the substance goes into solution per volume. Low readings indicate little dissolved substance, high ones much dissolved substance. For orientation: Ki means the dissociation constant of the complex between target and ligand, obtained from inhibition or displacement. Higher therefore signals weaker binding.

Values after ≈ are worked out from the molar mass of the structure shown. Where two headings read alike, the source gives them in different places.

AKT (phospho-Ser-AKT) in HT-29 xenograft tumors, sequence (P31749 whole entry): as the sequence (P31750 whole entry) above, with N2S, S50A, A100T, R112K, T117E, T389K, N410G, D415H counted along it

For the compound `Nc1ccc(S(=O)(=O)Nc2nncs2)cc1` [Compound 100, 4-Amino-N-(1,3,4-thiadiazol-2-yl)benzenesulfonamide], the IC50 in series [1] and in series [2] was above 100 µM each time. For the same compound, the entries for the “Apoptosis at 20 μmol/L” value in series [3] and in series [4] were 24.3 ± 3.2/ % and 25.7 ± 2.6%, respectively. The “Cell viability (IC50)” value with pancreatic cancer cells was “N/I”.
For `CCCCCCCCCC(=O)Nc1ccc(S(=O)(=O)Nc2nncs2)cc1` [Compound 101, N-(4-(N-1,3,4-Thiadiazol-2-ylsulfamoyl)phenyl)decanamide], the IC50 in [1] amounted to 90 µM; in series [2], 127 µM. Moreover, the figures for the “Apoptosis at 20 μmol/L” value in series [3] and in series [4] were 28.7 ± 0.3/ % and 20.0 ± 1.5%, respectively.
`CC(=O)Nc1ccc(S(=O)(=O)Nc2nncs2)cc1` [Compound 102, N-(4-(N-1,3,4-Thiadiazol-2-ylsulfamoyl)phenyl)acetamide]: the 50% inhibitory concentration (IC50) in [1] and in series [2] was above 100 µM throughout. For the same compound, the KD result at AKT PH domain [5] was “did not appear to bind”.
Take `COCCOCCOCC(=O)Nc1ccc(S(=O)(=O)Nc2nncs2)cc1` [Compound 103]: the IC50 in series [1] and in series [2] was above 100 µM in each case. The “Apoptosis at 20 μmol/L” value in series [3] was 11.4 ± 0.5/ %; in series [4] it was 18.7 ± 3.1%.
For the compound `CCCCCCCCCCCCc1ccc(S(=O)(=O)Nc2nncs2)cc1` [Compound 104, 4-Dodecyl-N-(1,3,4-thiadiazol-2-yl)benzenesulfonamide], the pKa in series [6] (read-out: acidic pKa) was 7.9 to 8.3; in [6] (read-out: additional pKa) it was above 9. The “Apoptosis at 20 μmol/L” value in series [4] is reported as 31.3 ± 1.6%. The compound further yielded a Growth rate in the series with SKOV-3 ovarian cancer of 122 ± 16 mm^3/10 days. In addition, in the series on SKOV-3 ovarian cancer, the T/C was determined as 28.3%.
In turn, `CC1=NN(C(=O)c2ccc(Cl)cc2)C(=O)C1/N=N/c1ccc(S(=O)(=O)Nc2ncccn2)cc1` (stereo not drawn) [Compound 316, (E)-4-((1-(4-chlorobenzoyl)-3-methyl-5-oxo-4,5-dihydro-1H-pyrazol-4-yl)diazenyl)-N-(pyrimidin-2-yl)benzenesulfonamide] gave an IC50 in series [7] of 4 µM. This compound gave a solubility in the series “Solubility (Table 11)” of 17.9 µM (≈ 8.91 µg/mL). The values for the peak plasma concentration in [8] (single dose 250 mg/kg i.p.) and in series [8] (single dose 250 mg/kg oral) were 1.4 nM and 600 nM, respectively. Further, in series [9], the “tumor phospho-Ser-AKT” value was “inhibition of tumor phospho-Ser-AKT was observed”. Besides, the half-life in series [10] (setting [16]) is 1 to 2 h; in series [10] (setting [17]), 1.03 h. In addition, in series [11] (five daily doses of 250 mg/kg i.p.), the “toxicity of repeated doses” value is listed as “moderate neutropenia”. The “toxicity of a single dose” value in series [11] (single dose of up to 250 mg/kg i.p.) is listed as “no toxicity”.
`CC1=NN(C(=O)c2ccccc2)C(=O)C1/N=N/c1ccc(S(=O)(=O)Nc2ncccn2)cc1` (stereo not drawn) [Compound 331]: the IC50 in series [7] was 11 µM; in [12] it was 14 µM. Besides, in the series “Solubility (Table 11)”, the solubility was found to be 28.3 µM (≈ 13.1 µg/mL). Also, the figures for the half-life in series [10] (setting [16]) and in [10] (setting [17]) were 1 to 2 h and 1.03 h, respectively.
Take `CC1=NN(C(=O)c2ccc(C(C)(C)C)cc2)C(=O)C1/N=N/c1ccc(S(=O)(=O)Nc2ncccn2)cc1` (stereo not drawn) [Compound 332]: the IC50 in [7] was above 20 µM; in series [13], above 20 µM; in series [12], 25 µM. This compound registered a solubility in the series “Solubility (Table 11)” of 28.6 µM (≈ 14.9 µg/mL). The half-life in series [10] (setting [16]) is 1 to 2 h; in [10] (setting [17]), 1.52 h.
Turning to `CC1=NN(C(=O)c2ccc(N)cc2)C(=O)C1/N=N/c1ccc(S(=O)(=O)Nc2ncccn2)cc1` (stereo not drawn) [Compound 333], at IRS1 PH domain, the “1RS1 PH mKD” value is given as “low KD” and the Kd came out at 0.14 ± 0.02 µM. In the series “Solubility (Table 11)”, this compound displayed a solubility of 12.9 µM (≈ 6.17 µg/mL). In series [13], the IC50 is above 20 µM. Besides, in series [10] (setting [17]), the half-life is above 8 h. Besides, the “Cytotoxicity (IC50 μM)” value in the series on HT-29 cells is “no cytotoxicity”. In [12], this compound yielded an IC50 above 100 µM.
In turn, `NS(=O)(=O)c1nnc(NS(=O)(=O)c2cccc3cccnc23)s1` [Compound 345] gave an IC50 in the series on HT-29 lung cancer cells above 100 µM.
For `CC1=NN(C(=O)c2ccc(O)cc2)C(=O)C1/N=N/c1ccc(S(=O)(=O)Nc2ncccn2)cc1` (stereo not drawn) [Compound 360], the values for the 50% inhibitory concentration (IC50) in series [7], in series [13] and in [12] were 5 µM, above 20 µM and above 100 µM, respectively. The values for the Kd at PH domain of PDK1 and on IRS1 PH domain were 0.42 µM and 1.74 ± 0.41 µM, respectively. The “1RS1 PH mKD” value on IRS1 PH domain was “low KD”. In the series “Solubility (Table 11)”, this compound returned a solubility of 13.1 µM (≈ 6.28 µg/mL). In addition, the results for the half-life in series [10] (setting [16]) and in series [10] (setting [17]) were 1 to 2 h and 2.3 h, respectively. For the same compound, the “Cytotoxicity (IC50 μM)” value in the series with HT-29 cells was “no cytotoxicity”.
For the compound `O=C(O)c1ccccc1C(=O)Nc1ccccc1SCCS(=O)(=O)c1ccc(Cl)cc1` [Compound 389], the results for the half-inhibitory concentration (IC50) (in the series on HT-29 lung cancer cells; in series [14]) were above 100 µM and 5 µM, respectively.
As to `COc1cc(NS(=O)(=O)c2ccc(NS(=O)(=O)c3c(C)noc3C)cc2)nc(OC)n1` [Compound 415], in the series with HT-29 lung cancer cells, inhibition was half-maximal at 3.1 µM (IC50).
Consider `CCCCCCCC(=O)OC[C@H](COP(=O)(O)O[C@H]1[C@H](O)[C@@H](OP(=O)(O)O)[C@H](OP(=O)(O)O)[C@@H](OP(=O)(O)O)[C@H]1O)OC(=O)CCCCCCC` [diC8-PtdIns(3,4,5)P3], for which, on AKT PH domain [15], the Ki is around 0.3 µM.

Values taken from patent US20120189670A1, “PHARMACEUTICAL COMPOSITIONS AND FORMULATIONS INCLUDING INHIBITORS OF THE PLECKSTRIN HOMOLOGY DOMAIN AND METHODS FOR USING SAME” (priority 2009, published 2012).
